In brackets after ≈: the same amount, converted by molar mass.
Assays:
Assay in all cases: Bacterial growth minimal inhibitory concentration (microdilution, cation-adjusted Mueller-Hinton Broth)
M. catarrhalis A894 = format: cell-based, Moraxella catarrhalis; settings: quinolone-sensitive strain; for MIC: Moraxella catarrhalis, A894, Table 1
Description: (§1) Minimal Inhibitory Concentrations (MICs; mg/L) were determined in cation-adjusted Mueller-Hinton Broth by a microdilution method following the description given in “Methods for Dilution Antimicrobial Susceptibility Tests for Bacteria that Grow Aerobically”, Approved standard, 7^1 ed., Clinical and Laboratory Standards Institute (CLSI) Document M7-A7, Wayne, Pa., USA (2006).
(§2) All Example compounds were tested against relevant Gram positive and Gram negative bacteria. […] Staphylococcus aureus A798 and Acinetobacter baumannii T6474 are multiply-resistant strains (in particular quinolone-resistant), whereas Moraxella catarrhalis A894 and Enterococcus faecalis ATCC29212 are quinolone-sensitive strains.

A. baumannii T6474 = format: cell-based, Acinetobacter baumannii; settings: for MIC: Acinetobacter baumannii, T6474, Table 1, multiply-resistant (quinolone-resistant) strain
Description: as §1, §2

E. faecalis ATCC 29212 = format: cell-based, Enterococcus faecalis; settings: quinolone-sensitive strain; for MIC: Enterococcus faecalis, ATCC29212, Table 1
Description: as §1, §2

S. aureus A798 = format: cell-based, Staphylococcus aureus; settings: for MIC: Staphylococcus aureus, A798, Table 1, multiply-resistant (quinolone-resistant) strain
Description: as §1, §2

[1] = Table 2, comparison with Example 50 of WO 2014/170821
[2] = Table 2, comparison with Example 50 of WO 2014/170821, multiply-resistant strain

SMILES	MIC (M. catarrhalis A894) [µg/mL]	MIC (A. baumannii T6474) [µg/mL]	MIC (E. faecalis ATCC 29212) [µg/mL]	MIC (S. aureus A798) [µg/mL]	MIC for M. catarrhalis A894 (M. catarrhalis A894; [1]) [µg/mL]	MIC for A. baumannii T6474 (A. baumannii T6474; [2]) [µg/mL]	MIC for E. faecalis ATCC 29212 (E. faecalis ATCC 29212; [1]) [µg/mL]	MIC for S. aureus A798 (S. aureus A798; [2]) [µg/mL]
O=C1COc2ccc(N3C[C@H](CCNCc4cc(-c5cc(OC6COC6)cnn5)ccn4)OC3=O)nc2N1 [Example 5, 6-{(S)-5-[2-({4-[5-(oxetan-3-yloxy)-pyridazin-3-yl]-pyridin-2-ylmethyl}-amino)-ethyl]-2-oxo-oxazolidin-3-yl}-4H-pyrido[3,2-b][1,4]oxazin-3-one]	0.5 (≈ 0.962 µM)	8 (≈ 15.4 µM)	8 (≈ 15.4 µM)	8 (≈ 15.4 µM)				
O=C1COc2ccc(N3C[C@H](CCNCc4nccc(-c5cncc(OC6COC6)n5)c4O)OC3=O)nc2N1 [Example 16, 6-{(S)-5-[2-({3-Hydroxy-4-[6-(oxetan-3-yloxy)-pyrazin-2-yl]-pyridin-2-ylmethyl}-amino)-ethyl]-2-oxo-oxazolidin-3-yl}-4H-pyrido[3,2-b][1,4]oxazin-3-one]	0.25 (≈ 0.467 µM)	1 (≈ 1.87 µM)	2 (≈ 3.73 µM)	0.25 (≈ 0.467 µM)				
O=C1COc2ccc(N3C[C@H](CCNCc4cc(-c5cncc(OC6COC6)n5)c(O)cn4)OC3=O)nc2N1 [Example 14, 6-{(S)-5-[2-({5-hydroxy-4-[6-(oxetan-3-yloxy)-pyrazin-2-yl]-pyridin-2-ylmethyl}-amino)-ethyl]-2-oxo-oxazolidin-3-yl}-4H-pyrido[3,2-b][1,4]oxazin-3-one]	0.5 (≈ 0.934 µM)	4 (≈ 7.47 µM)	4 (≈ 7.47 µM)	1 (≈ 1.87 µM)				
O=C1COc2ccc(N3C[C@@H](CCNCc4cc(-c5nccc(OC6COC6)n5)ccn4)OC3=O)nc2N1 [Example 10, 6-{(R)-5-[2-({4-[4-(oxetan-3-yloxy)-pyrimidin-2-yl]-pyridin-2-ylmethyl}-amino)-ethyl]-2-oxo-oxazolidin-3-yl}-4H-pyrido[3,2-b][1,4]oxazin-3-one]	0.063 (≈ 0.121 µM)	0.25 (≈ 0.481 µM)	0.5 (≈ 0.962 µM)	0.25 (≈ 0.481 µM)				
O=C1COc2ccc(N3C[C@H](CCNCc4cc(-c5cc(OC6COC6)ccn5)ccn4)OC3=O)nc2N1 [Example 3, 6-[(S)-5-(2-{[4-(oxetan-3-yloxy)-[2,4′]bipyridinyl-2′-ylmethyl]-amino}-ethyl)-2-oxo-oxazolidin-3-yl]-4H-pyrido[3,2-b][1,4]oxazin-3-one]	0.25 (≈ 0.482 µM)	1 (≈ 1.93 µM)	1 (≈ 1.93 µM)	1 (≈ 1.93 µM)				
O=C1COc2ccc(N3C[C@H](CCNCc4cccc(-c5cc(OC6COC6)cnn5)c4)OC3=O)nc2N1 [Example 8, 6-[(S)-5-(2-{3-[5-(oxetan-3-yloxy)-pyridazin-3-yl]-benzylamino}-ethyl)-2-oxo-oxazolidin-3-yl]-4H-pyrido[3,2-b][1,4]oxazin-3-one]	0.25 (≈ 0.482 µM)	1 (≈ 1.93 µM)	4 (≈ 7.71 µM)	0.5 (≈ 0.964 µM)				
O=C1CSc2ccc(N3C[C@H](CCNCc4cc(-c5nccc(OC6COC6)n5)ccn4)OC3=O)cc2N1 [Example 12, 6-{(S)-5-[2-({4-[4-(oxetan-3-yloxy)-pyrimidin-2-yl]-pyridin-2-ylmethyl}-amino)-ethyl]-2-oxo-oxazolidin-3-yl}-4H-benzo[1,4]thiazin-3-one]	≤ 0.031	0.25 (≈ 0.468 µM)	0.25 (≈ 0.468 µM)	≤ 0.031				

Results, then the compound that gave them:

MIC (M. catarrhalis A894) [µg/mL]	MIC (A. baumannii T6474) [µg/mL]	MIC (E. faecalis ATCC 29212) [µg/mL]	MIC (S. aureus A798) [µg/mL]	MIC for M. catarrhalis A894 (M. catarrhalis A894; [1]) [µg/mL]	MIC for A. baumannii T6474 (A. baumannii T6474; [2]) [µg/mL]	MIC for E. faecalis ATCC 29212 (E. faecalis ATCC 29212; [1]) [µg/mL]	MIC for S. aureus A798 (S. aureus A798; [2]) [µg/mL]	SMILES
≤ 0.031	0.125 (≈ 0.242 µM)	0.25 (≈ 0.483 µM)	≤ 0.031					O=C1COc2ccc(-n3cc(CCNCc4cc(-c5cncc(OC6COC6)n5)ccn4)oc3=O)nc2N1 [Example 2, 6-{5-[2-({4-[6-(oxetan-3-yloxy)-pyrazin-2-yl]-pyridin-2-ylmethyl}-amino)-ethyl]-2-oxo-oxazol-3-yl}-4H-pyrido[3,2-b][1,4]oxazin-3-one]
≤ 0.031	0.125 (≈ 0.241 µM)	0.25 (≈ 0.481 µM)	≤ 0.031					O=C1COc2ccc(N3C[C@H](CCNCc4cc(-c5nccc(OC6COC6)n5)ccn4)OC3=O)nc2N1 [Example 4, 6-{(S)-5-[2-({4-[4-(oxetan-3-yloxy)-pyrimidin-2-yl]-pyridin-2-ylmethyl}-amino)-ethyl]-2-oxo-oxazolidin-3-yl}-4H-pyrido[3,2-b][1,4]oxazin-3-one]
≤ 0.031	0.125 (≈ 0.241 µM)	0.25 (≈ 0.481 µM)	≤ 0.031					O=C1COc2ccc(N3C[C@H](CCNCc4cc(-c5cncc(OC6COC6)n5)ccn4)OC3=O)nc2N1 [Example 1, 6-{(S)-5-[2-({4-[6-(oxetan-3-yloxy)-pyrazin-2-yl]-pyridin-2-ylmethyl}-amino)-ethyl]-2-oxo-oxazolidin-3-yl}-4H-pyrido[3,2-b][1,4]oxazin-3-one]
≤ 0.031	0.125 (≈ 0.233 µM)	0.125 (≈ 0.233 µM)	≤ 0.031					O=C1CSc2ccc(N3C[C@H](CCNCc4cc(-c5nccc(OC6COC6)n5)ccn4)OC3=O)nc2N1 [Example 11, 6-{(S)-5-[2-({4-[4-(oxetan-3-yloxy)-pyrimidin-2-yl]-pyridin-2-ylmethyl}-amino)-ethyl]-2-oxo-oxazolidin-3-yl}-4H-pyrido[3,2-b][1,4]thiazin-3-one]
≤ 0.031	0.25 (≈ 0.483 µM)	0.25 (≈ 0.483 µM)	≤ 0.031					O=C1COc2ccc(N3C[C@H](CCNCc4cccc(-c5cccc(OC6COC6)n5)c4)OC3=O)nc2N1 [Example 6, 6-[(S)-5-(2-{3-[6-(oxetan-3-yloxy)-pyridin-2-yl]-benzylamino}-ethyl)-2-oxo-oxazolidin-3-yl]-4H-pyrido[3,2-b][1,4]oxazin-3-one]
≤ 0.031	0.125 (≈ 0.242 µM)	0.5 (≈ 0.966 µM)	≤ 0.031					O=C1COc2ccc(-n3cc(CCNCc4cc(-c5nccc(OC6COC6)n5)ccn4)oc3=O)nc2N1 [Example 13, 6-{5-[2-({4-[4-(oxetan-3-yloxy)-pyrimidin-2-yl]-pyridin-2-ylmethyl}-amino)-ethyl]-2-oxo-oxazol-3-yl}-4H-pyrido[3,2-b][1,4]oxazin-3-one]
≤ 0.031	1 (≈ 1.94 µM)	0.5 (≈ 0.968 µM)	0.125 (≈ 0.242 µM)	≤0.031	1	0.5	0.125	O=C1COc2ccc(N3C[C@H](CCNCc4cccc(-c5cccc(OC6COC6)c5)c4)OC3=O)nc2N1 [Example 9, 6-[(S)-5-(2-{[3′-(oxetan-3-yloxy)-biphenyl-3-ylmethyl]-amino}-ethyl)-2-oxo-oxazolidin-3-yl]-4H-pyrido[3,2-b][1,4]oxazin-3-one]
≤ 0.031	0.25 (≈ 0.467 µM)	0.25 (≈ 0.467 µM)	≤ 0.031					O=C1COc2ccc(N3C[C@H](CCNCc4cc(-c5nccc(OC6COC6)n5)c(O)cn4)OC3=O)nc2N1 [Example 15, 6-{(S)-5-[2-({5-hydroxy-4-[4-(oxetan-3-yloxy)-pyrimidin-2-yl]-pyridin-2-ylmethyl}-amino)-ethyl]-2-oxo-oxazolidin-3-yl}-4H-pyrido[3,2-b][1,4]oxazin-3-one]
≤ 0.031	0.5 (≈ 0.962 µM)	0.5 (≈ 0.962 µM)	≤ 0.031					O=C1COc2ccc(N3C[C@H](CCNCc4ccnc(-c5cncc(OC6COC6)n5)c4)OC3=O)nc2N1 [Example 7, 6-{(S)-5-[2-({2-[6-(oxetan-3-yloxy)-pyrazin-2-yl]-pyridin-4-ylmethyl}-amino)-ethyl]-2-oxo-oxazolidin-3-yl}-4H-pyrido[3,2-b][1,4]oxazin-3-one]

Source: patent publication US20200325154A1, “ANTIBACTERIAL BIAROMATIC DERIVATIVES WITH OXETANE-3-YLOXY SUBSTITUTION” (priority 2016, published 2020)
